Reference: the supplement of paper PMC10307832

Assays:
Test in all cases: relative viability (nuclei count vs DMSO), 5 days (fraction); higher = more cells survive
[1] = compound: C/C(=N\NC(=S)N1CCC1)/C2=CC=CC=N2
How it was run: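 Five library-drug doses, separated by factors of √10, were pinned into 1536-well plates holding lung cancer cell lines after an overnight stay at 37 °C. Cells were fixed, permeabilised and Hoechst-stained in one step after 5 days without medium change, then imaged at 4×. Viability compares treated-well with vehicle-well nuclei, counted in MetaXpress, as a median across plates. Passing plates had control CV below 25% and at least one doubling.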

[2] = compound: C/C(=N\NC(=S)N1CCC1)/C2=CC=CC=N2 + O=C(CCCCCCC(=O)Nc1ccccc1)NO [Vorinostat] (partner 1 µM)
How it was run: (§1)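 Lung cancer cell lines, seeded in 1536-well plates, were treated the following day by pin tool with a single drug or with five library-drug doses (not always all listed) in √10 steps on top of a fixed anchor-drug dose. Cells were fixed and nuclei stained in one step after 5 days, and nuclei were counted. Relative viability is the nuclei count for treated wells divided by that for vehicle wells, reported as medians of duplicate plates.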

[3] = compound: C/C(=N\NC(=S)N1CCC1)/C2=CC=CC=N2 + CC(=O)c1c(C)c2cnc(Nc3ccc(N4CCNCC4)cn3)nc2n(C2CCCC2)c1=O [Palbociclib] (partner 0.5 µM)
How it was run: as §1

[4] = compound: C/C(=N\NC(=S)N1CCC1)/C2=CC=CC=N2 + CC(=O)Nc1cccc(-n2c(=O)n(C3CC3)c(=O)c3c(Nc4ccc(I)cc4F)n(C)c(=O)c(C)c32)c1 [Trametinib] (partner 0.02 µM)
How it was run: as §1

[5] = compound: C/C(=N\NC(=S)N1CCC1)/C2=CC=CC=N2 + Cc1cc(Nc2cc(N3CCN(C)CC3)nc(Sc3ccc(NC(=O)C4CC4)cc3)n2)n[nH]1 [Tozasertib] (partner 0.1 µM)
How it was run: as §1

[6] = compound: C/C(=N\NC(=S)N1CCC1)/C2=CC=CC=N2 + NC(=O)Nc1cc(-c2cccc(F)c2)sc1C(=O)N[C@H]1CCCNC1 [AZD7762] (partner 0.2 µM)
How it was run: as §1

[7] = compound: C/C(=N\NC(=S)N1CCC1)/C2=CC=CC=N2 + CCNC(=O)c1noc(-c2cc(C(C)C)c(O)cc2O)c1-c1ccc(CN2CCOCC2)cc1 [Luminespib] (partner 0.01 µM)
How it was run: as §1

[8] = compound: C/C(=N\NC(=S)N1CCC1)/C2=CC=CC=N2 + COc1cccc2cc(-c3nc([C@H]4CC[C@H](C(=O)O)CC4)n4ncnc(N)c34)[nH]c12 [OSI-027] (partner 0.5 µM)
How it was run: as §1

[9] = compound: C/C(=N\NC(=S)N1CCC1)/C2=CC=CC=N2 + O=C(c1cc(Cc2n[nH]c(=O)c3ccccc23)ccc1F)N1CCN(C(=O)C2CC2)CC1 [Olaparib] (partner 8 µM)
How it was run: as §1

[10] = compound: C/C(=N\NC(=S)N1CCC1)/C2=CC=CC=N2 + Nc1nc2[nH]cc(CCc3ccc(C(=O)N[C@@H](CCC(=O)O)C(=O)O)cc3)c2c(=O)[nH]1 [Pemetrexed] (partner 0.2 µM)
How it was run: as §1

[11] = compound: C/C(=N\NC(=S)N1CCC1)/C2=CC=CC=N2 + COc1cc2c(Oc3ccc(NC(=O)C4(C(=O)Nc5ccc(F)cc5)CC4)cc3F)ccnc2cc1OCCCN1CCOCC1 [Foretinib] (partner 0.25 µM)
How it was run: as §1

[12] = compound: C/C(=N\NC(=S)N1CCC1)/C2=CC=CC=N2 + N=C(N)NC(=N)NCCc1ccccc1 [Phenformin] (partner 250 µM)
How it was run: as §1

[13] = compound: C/C(=N\NC(=S)N1CCC1)/C2=CC=CC=N2 + Nc1ncn([C@H]2C[C@H](O)[C@@H](CO)O2)c(=O)n1 [Decitabine] (partner 2 µM)
How it was run: as §1

[14] = compound: C/C(=N\NC(=S)N1CCC1)/C2=CC=CC=N2 + Cc1nc(Nc2ncc(C(=O)Nc3c(C)cccc3Cl)s2)cc(N2CCN(CCO)CC2)n1 [Dasatinib] (partner 0.075 µM)
How it was run: as §1

Cell Line: NCI-H2342
- relative viability ([1]; 0.05 µM): 0.274
- relative viability ([1]; 0.1581 µM): 0.277
- relative viability ([1]; 0.5 µM): 0.266
- relative viability ([1]; 1.581 µM): 0.239
- relative viability ([1]; 5 µM): 0.259
- relative viability ([2]; first compound 0.05 µM): 0.28
- relative viability ([2]; first compound 0.1581 µM): 0.288
- relative viability ([2]; first compound 0.5 µM): 0.267
- relative viability ([2]; first compound 1.581 µM): 0.234
- relative viability ([2]; first compound 5 µM): 0.265
- relative viability ([3]; first compound 0.05 µM): 0.276
- relative viability ([3]; first compound 0.1581 µM): 0.283
- relative viability ([3]; first compound 0.5 µM): 0.274
- relative viability ([3]; first compound 1.581 µM): 0.253
- relative viability ([3]; first compound 5 µM): 0.255
- relative viability ([4]; first compound 0.05 µM): 0.249
- relative viability ([4]; first compound 0.1581 µM): 0.303
- relative viability ([4]; first compound 0.5 µM): 0.227
- relative viability ([4]; first compound 1.581 µM): 0.253
- relative viability ([4]; first compound 5 µM): 0.272
- relative viability ([5]; first compound 0.05 µM): 0.229
- relative viability ([5]; first compound 0.1581 µM): 0.264
- relative viability ([5]; first compound 0.5 µM): 0.263
- relative viability ([5]; first compound 1.581 µM): 0.219
- relative viability ([5]; first compound 5 µM): 0.247
- relative viability ([6]; first compound 0.05 µM): 0.302
- relative viability ([6]; first compound 0.1581 µM): 0.32
- relative viability ([6]; first compound 0.5 µM): 0.278
- relative viability ([6]; first compound 1.581 µM): 0.256
- relative viability ([6]; first compound 5 µM): 0.285
- relative viability ([7]; first compound 0.05 µM): 0.261
- relative viability ([7]; first compound 0.1581 µM): 0.279
- relative viability ([7]; first compound 0.5 µM): 0.23
- relative viability ([7]; first compound 1.581 µM): 0.245
- relative viability ([7]; first compound 5 µM): 0.238
- relative viability ([8]; first compound 0.05 µM): 0.288
- relative viability ([8]; first compound 0.1581 µM): 0.263
- relative viability ([8]; first compound 0.5 µM): 0.27
- relative viability ([8]; first compound 1.581 µM): 0.264
- relative viability ([8]; first compound 5 µM): 0.262
- relative viability ([9]; first compound 0.05 µM): 0.276
- relative viability ([9]; first compound 0.1581 µM): 0.281
- relative viability ([9]; first compound 0.5 µM): 0.192
- relative viability ([9]; first compound 1.581 µM): 0.206
- relative viability ([9]; first compound 5 µM): 0.259
- relative viability ([10]; first compound 0.05 µM): 0.262
- relative viability ([10]; first compound 0.1581 µM): 0.288
- relative viability ([10]; first compound 0.5 µM): 0.277
- relative viability ([10]; first compound 1.581 µM): 0.259
- relative viability ([10]; first compound 5 µM): 0.251
- relative viability ([11]; first compound 0.05 µM): 0.255
- relative viability ([11]; first compound 0.1581 µM): 0.244
- relative viability ([11]; first compound 0.5 µM): 0.263
- relative viability ([11]; first compound 1.581 µM): 0.24
- relative viability ([11]; first compound 5 µM): 0.233
- relative viability ([12]; first compound 0.05 µM): 0.25
- relative viability ([12]; first compound 0.1581 µM): 0.232
- relative viability ([12]; first compound 0.5 µM): 0.266
- relative viability ([12]; first compound 1.581 µM): 0.231
- relative viability ([12]; first compound 5 µM): 0.25
- relative viability ([13]; first compound 0.05 µM): 0.318
- relative viability ([13]; first compound 0.1581 µM): 0.306
- relative viability ([13]; first compound 0.5 µM): 0.265
- relative viability ([13]; first compound 1.581 µM): 0.276
- relative viability ([13]; first compound 5 µM): 0.25
- relative viability ([14]; first compound 0.05 µM): 0.297
- relative viability ([14]; first compound 0.1581 µM): 0.283
- relative viability ([14]; first compound 0.5 µM): 0.258
- relative viability ([14]; first compound 1.581 µM): 0.249
- relative viability ([14]; first compound 5 µM): 0.284

Cell Line: NCI-H1623
- relative viability ([1]; 0.05 µM): 0.395
- relative viability ([1]; 0.1581 µM): 0.415
- relative viability ([1]; 0.5 µM): 0.403
- relative viability ([1]; 1.581 µM): 0.357
- relative viability ([1]; 5 µM): 0.32
- relative viability ([5]; first compound 0.05 µM): 0.32
- relative viability ([5]; first compound 0.1581 µM): 0.329
- relative viability ([5]; first compound 0.5 µM): 0.323
- relative viability ([5]; first compound 1.581 µM): 0.269
- relative viability ([5]; first compound 5 µM): 0.266
- relative viability ([7]; first compound 0.05 µM): 0.241
- relative viability ([7]; first compound 0.1581 µM): 0.295
- relative viability ([7]; first compound 0.5 µM): 0.303
- relative viability ([7]; first compound 1.581 µM): 0.231
- relative viability ([7]; first compound 5 µM): 0.322
- relative viability ([8]; first compound 0.05 µM): 0.336
- relative viability ([8]; first compound 0.1581 µM): 0.367
- relative viability ([8]; first compound 0.5 µM): 0.332
- relative viability ([8]; first compound 1.581 µM): 0.268
- relative viability ([8]; first compound 5 µM): 0.293
- relative viability ([11]; first compound 0.05 µM): 0.39
- relative viability ([11]; first compound 0.1581 µM): 0.372
- relative viability ([11]; first compound 0.5 µM): 0.414
- relative viability ([11]; first compound 1.581 µM): 0.347
- relative viability ([11]; first compound 5 µM): 0.622
- relative viability ([12]; first compound 0.05 µM): 0.366
- relative viability ([12]; first compound 0.1581 µM): 0.337
- relative viability ([12]; first compound 0.5 µM): 0.424
- relative viability ([12]; first compound 1.581 µM): 0.349
- relative viability ([12]; first compound 5 µM): 0.636
- relative viability ([14]; first compound 0.05 µM): 0.32
- relative viability ([14]; first compound 0.1581 µM): 0.364
- relative viability ([14]; first compound 0.5 µM): 0.293
- relative viability ([14]; first compound 1.581 µM): 0.276
- relative viability ([14]; first compound 5 µM): 0.528
